Key:
P. falciparum 3D7-A10 = experiment: Blood-stage dose-response assay (SYBR Green I, 72 hr), 3D7 / 3D7-A10 parent; assay type: cell-based; conditions: Plasmodium falciparum, mean ± SD, n bioreplicates, read-out: 3D7-A10 parent EC50 ± SD
Procedure: (§1) The 3D7-A10 clone has been used in previous in vitro drug selection and sequencing efforts ([Cowell et al., 2018]). Dd2 parasites were obtained from T. Wellems (NIAID, NIH). Dd2-B2 is a genetically homogeneous line that was cloned from Dd2 by limiting dilution in the Fidock lab. Parasite strains were cultured in 3-5% human O+ hematocrit in RPMI 1640 (Life Technologies) supplemented with 28 mM NaHCO3, 25 mM HEPES, and hypoxanthine ([…]). Depending on the parasite line, the media either contained gentamycin (25 μg/mL), or no antibiotic and was additionally supplemented with 0.5% AlbuMAX II (Life Technologies) and/or O+ human serum (heat inactivated and pooled). Blood and serum products were obtained from Interstate Blood Bank. Cultures were maintained at 37°C in 1.1% O2, 4% CO2, and 95% N2. Parasite populations were synchronized by 5% sorbitol treatment ([Lambros and Vanderberg, 1979]).
(§2) For in vitro–selected lines, drug susceptibility was measured by SYBR Green I–based assay ([Johnson et al., 2007]; [Smilkstein et al., 2004]). Ring-stage parasites were cultured for 72 hr at 1% hematocrit and 1% starting parasitemia in 384-well black clear-bottom plates containing test compounds plated in triplicate in 12-point serial dilutions. Lysis buffer (0.16% w/v saponin, 1.6% Triton X-100, 5 mM EDTA, and 20 mM Tris-HCl, pH 7.4) with SYBR Green I fluorescent dye (Invitrogen) was added, and fluorescence readings were taken (excitation at 494 nm, emission at 530 nm). Alternatively, Dd2-B2 ring-stage cultures at 0.3% parasitemia and 1% hematocrit were exposed for 72 hr to a range of ten drug concentrations that were 2-fold serially diluted in duplicates along with drug-free controls. Parasite survival was assessed by flow cytometry on an Accuri C6 (BD Biosciences) using SYBR Green and MitoTracker Deep Red FM (Life Technologies) as nucleic acid stain and vital dyes respectively. EC50 values were calculated using a nonlinear regression curve fit in Prism Software version 8 (GraphPad).

[1] = test system: P. falciparum Dd2:T648M (CRISPR edited PfAcAS); experiment: Blood-stage dose-response assay, CRISPR-edited Dd2:T648M line; assay type: cell-based; conditions: Plasmodium falciparum, mean ± SD, n bioreplicates
Procedure: as §2
(§3) Mutant PfAcAS-A597V and PfAcAS-T648M parasites were generated using CRISPR/Cas9. The guide RNAs for PfAcAS-A597V (5′-[…]-3′; 5′-[…]-3′) and for PfAcAS-T648M (5′-[…]-3′) were designed using Benchling (https://benchling.com/) to targeting sites in PfAcAS that were 6-14 bp upstream of the A597 codon and 6 bp downstream of the T648 codon respectively. Complementary oligos encoding the gRNA sequences (5′- tatt[…]-3’ / 5’-aaac[…]-3’; 5’-tatt[…]-3’ / 5’-aaac[…]-3’ and 5’- tattg[…]-3’ / 5’-aaac[…]c-3’ ) were phosphorylated using T4 polynucleotide kinase and annealed (95°C for 5 min, then step down of 5°C/min to 25°C) prior to ligation into the BbsI-digested pDC2-coCas9-U6.2-hDHFR plasmid ([Lim et al., 2016]). The donor template for PfAcAS-A597V was synthesized (ThermoFisher) as a 700 bp Genestring fragment spanning position 1468 to 2168 of the PfAcAS gene, and the donor for PfAcAS-T648M synthesized as a 829 bp fragment spanning position 1468 to 2297 and inserted into the AatII/EcoRI sites of the pDC2-coCas9-gRNA-hDHFR plasmid by Gibson assembly. Ring-stage parasites (Dd2) at 5% parasitemia were transfected by electroporation (BioRad Gene Pulser II at 0.310 kV and 950 μF) with 50 μg of each plasmid (plasmid 1: pDC2-coCas9-AcAS-A597V-gRNA1-hDHFR, plasmid 2: pDC2-coCas9-gRNA2-hDHFR, or plasmid 3: pDC2-coCas9-AcAS-T648M-gRNA1-hDHFR), and parasites selected for 10 days with 2.5 nM WR99210 (Jacobus Pharmaceuticals), followed by removal of drug pressure. After confirmation of editing in the bulk culture, clones were isolated by serial limiting dilution and confirmed by Sanger sequencing after PCR amplification from genomic DNA using forward primer 5′-[…]-3′ and reverse primer 5′-[…]-3′ (for A597V) and 5′-[…]-3′ (for T648M).

P. falciparum Dd2-B2 = experiment: Blood-stage dose-response assay (72 hr), Dd2 / Dd2-B2 parent; assay type: cell-based; conditions: Plasmodium falciparum, DD2, read-out: Dd2-B2 parent EC50 ± SD (nM)
Procedure: as §1, §2

[2] = test system: P. falciparum Dd2:A597V (CRISPR edited PfAcAS); experiment: Blood-stage dose-response assay, CRISPR-edited Dd2:A597V line; assay type: cell-based; conditions: Plasmodium falciparum, mean ± SD, n bioreplicates
Procedure: as §2, §3

PfAcAS A597V = target: T1, PfAcAS A597V (Plasmodium falciparum, UniProt C6KTB4, A597V); experiment: EnzChek assay, recombinant PfAcAS A597V; assay type: biochemical, P. falciparum; conditions: substrate varied, other two saturating
T1 sequence (C6KTB4 1-997 A597V): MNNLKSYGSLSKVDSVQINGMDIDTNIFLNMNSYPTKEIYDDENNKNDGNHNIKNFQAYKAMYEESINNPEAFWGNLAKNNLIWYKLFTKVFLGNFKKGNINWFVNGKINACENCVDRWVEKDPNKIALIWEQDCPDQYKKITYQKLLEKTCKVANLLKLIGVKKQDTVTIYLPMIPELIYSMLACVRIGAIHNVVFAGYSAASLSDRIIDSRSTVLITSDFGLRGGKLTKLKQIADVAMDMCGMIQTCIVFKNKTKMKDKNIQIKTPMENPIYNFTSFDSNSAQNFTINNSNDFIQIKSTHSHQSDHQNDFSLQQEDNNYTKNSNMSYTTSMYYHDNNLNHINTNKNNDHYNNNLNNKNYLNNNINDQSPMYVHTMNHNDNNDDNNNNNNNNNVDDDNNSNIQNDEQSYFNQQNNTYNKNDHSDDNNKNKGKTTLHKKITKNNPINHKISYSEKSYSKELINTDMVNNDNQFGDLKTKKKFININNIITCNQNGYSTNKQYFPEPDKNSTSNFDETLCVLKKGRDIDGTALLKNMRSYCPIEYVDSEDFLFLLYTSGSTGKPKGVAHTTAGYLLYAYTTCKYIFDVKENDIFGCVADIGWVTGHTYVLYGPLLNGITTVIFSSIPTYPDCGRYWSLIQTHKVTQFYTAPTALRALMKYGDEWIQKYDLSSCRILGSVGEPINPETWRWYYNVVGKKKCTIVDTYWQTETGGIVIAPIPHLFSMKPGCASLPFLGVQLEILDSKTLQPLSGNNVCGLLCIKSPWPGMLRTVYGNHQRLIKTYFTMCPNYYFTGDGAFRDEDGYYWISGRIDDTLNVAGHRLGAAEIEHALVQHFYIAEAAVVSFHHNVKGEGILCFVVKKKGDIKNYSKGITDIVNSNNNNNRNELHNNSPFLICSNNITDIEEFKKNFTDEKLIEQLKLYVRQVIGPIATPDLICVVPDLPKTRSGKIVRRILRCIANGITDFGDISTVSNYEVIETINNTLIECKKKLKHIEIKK
Procedure: (§4) Steady-state kinetic measurements were conducted at room temperature using a PheraStar plate reader (BMG). The first step of the reaction of PfAcAS, which produces inorganic pyrophosphate (PPi) that is converted to two molecules of inorganic phosphate using a pyrophosphatase enzyme, was continuously monitored using the EnzChek Phosphate Assay Kit, which gives an absorbance readout at 360 nm (Figure 4A) ([Webb, 1992]). […] By adding CoA, the reaction rapidly proceeds to the second step resulting in further release of pyrophosphate, making the EnzChek assay a suitable option to continuously monitor the activity of PfAcAS. Typical kinetic assays were carried out in clear, flat-bottom, polystyrene, 384-well plates (Greiner) in an 80 μL reaction volume containing 100 mM HEPES (pH7.4), 100 mM NaCl, 250 mM KCl, 50 mM MgCl2, 1 mM DTT, 0.004% Tween 20, 0.5 U/mL pyrophosphatase, 0.1 mM MESG, 0.5 U/mL PNP, 2 mM ATP, 2 mM acetate, 0.5 mM CoA and 5 nM recombinant PfAcAS WT or 10 nM recombinant PfAcAS A597V or T648M. Assays were performed by adding 40 μL of a 2-times concentrated substrate mixture including MESG to all wells, and the reactions started by adding 40 μL of a 2-times concentrated reaction mixture containing all other components. The reactions were carried out for 2 to 4 hr with absorbance readings at 360 nm every two to four minutes. Reaction rates were extracted from the linear phase of activity, usually using 10 to 20 points between times of 30 and 100 min of the reactions. Using a phosphate standard curve obtained under the same buffer conditions used for the PfAcAS reactions (Figure S5A), the rates were then converted to velocity per second, conversion of one nanomolar of phosphate, per nanomolar of enzyme, per second. The substrates Km values were determined by varying the concentration of one of the substrates at saturating concentration of the other two substrates. Steady-state data were fitted using the nonlinear, least-squares, curve-fitting programs of Sigma-Plot for Windows, version 14.0. Individual saturation curves were fit to Equation 1(Equation 1) v=VS/K+S where V is the maximal velocity, S is the substrate concentration and K is the Michaelis constant for the substrate (Km). Individual saturation curves displaying substrate inhibition were fit to Equation 2(Equation 2) v=VS/K+S×(1+S/Ks) where Ks is the substrate inhibition constant.
(§5) To determine the steady-state inhibition parameters and patterns associated with both inhibitors, PfAcAS activity was studied in the presence of variable concentrations of one substrate, ATP, acetate or CoA, fixed saturating concentration of the other two substrates (acetate and CoA, ATP and CoA, or ATP and acetate) and several fixed concentrations of inhibitor. Assay ready plates containing different concentrations of inhibitor were prepared using an Echo 550 acoustic dispenser (Labcyte Inc.). The assays were carried out as described in the previous section. […] For better comparison between both inhibitors and proteins, the ymin was fixed to zero and the ymax to 100. Inhibition data showing linear, competitive patterns in double-reciprocal plots were fit to Equation 4(Equation 4) v=VS/K(1+I/Ki)+S where Ki is the dissociation constant for the enzyme-inhibitor complex. Inhibition data showing linear, mixed inhibition patterns in double-reciprocal plots were fit to Equation 5(Equation 5) v=VS/K(1+I/Kis)+S(1+I/Kii) where Kis is the dissociation constant for the free enzyme-inhibitor complex and Kii is the dissociation constant for the enzyme-substrate-inhibitor complex. Inhibition data showing linear, uncompetitive patterns in double-reciprocal plots were fit to Equation 6(Equation 6) v=VS/K+S(1+I/Ki)

PfAcAS WT = PfAcAS WT (Plasmodium falciparum, UniProt C6KTB4); experiment: EnzChek assay, recombinant PfAcAS WT (steady-state kinetics and IC50); assay type: biochemical, P. falciparum; conditions: substrate varied, other two saturating
Procedure: as §4, §5

PfAcAS T648M = target: T2, PfAcAS T648M (Plasmodium falciparum, UniProt C6KTB4, T648M); experiment: EnzChek assay, recombinant PfAcAS T648M; assay type: biochemical, P. falciparum; conditions: substrate varied, other two saturating
T2 sequence (C6KTB4 1-997 T648M): T1 sequence (C6KTB4 1-997 A597V)
Procedure: as §4, §5

HsAcAS WT = target: T3, HsAcAS WT (Homo sapiens, UniProt Q9NR19); experiment: HsAcAS Rapid-Fire QQQ mass spectrometry assay; assay type: biochemical; conditions: read-out: Km (µM), HsWT
T3 construct: made in house; host or cells: Expi293 cells (pCDNA 3.1, transient transfection)
T3 sequence (Q9NR19 whole entry): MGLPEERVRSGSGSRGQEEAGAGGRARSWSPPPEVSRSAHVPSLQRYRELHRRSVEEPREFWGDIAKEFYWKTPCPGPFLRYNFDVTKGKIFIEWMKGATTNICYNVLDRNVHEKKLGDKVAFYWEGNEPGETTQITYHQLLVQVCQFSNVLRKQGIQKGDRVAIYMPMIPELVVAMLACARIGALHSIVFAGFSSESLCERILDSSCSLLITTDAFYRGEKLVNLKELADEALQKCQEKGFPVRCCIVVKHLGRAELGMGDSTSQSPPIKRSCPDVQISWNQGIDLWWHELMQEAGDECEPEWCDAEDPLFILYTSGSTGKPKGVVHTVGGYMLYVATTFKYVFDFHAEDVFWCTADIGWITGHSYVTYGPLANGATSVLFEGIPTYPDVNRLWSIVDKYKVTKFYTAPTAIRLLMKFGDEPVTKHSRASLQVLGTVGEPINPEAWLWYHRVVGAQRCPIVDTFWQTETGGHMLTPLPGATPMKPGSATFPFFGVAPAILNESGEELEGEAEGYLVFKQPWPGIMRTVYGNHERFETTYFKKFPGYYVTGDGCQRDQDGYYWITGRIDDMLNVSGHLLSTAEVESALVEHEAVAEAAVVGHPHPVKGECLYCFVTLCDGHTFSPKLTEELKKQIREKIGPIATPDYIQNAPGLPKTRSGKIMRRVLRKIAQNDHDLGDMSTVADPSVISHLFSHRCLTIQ
Procedure: The human form of acetyl-CoA synthetase was assayed in 100 mM HEPES (pH7.4), 100 mM NaCl, 250 mM KCl, 50 mM MgCl2, 1 mM DTT, 0.005% NP40, 400 μM ATP, 70 μM acetate, 40 μM CoA and 2 nM recombinant HsAcAS. Assay ready plates containing different concentrations of inhibitor were prepared using an Echo 550 acoustic dispenser (Labcyte Inc.), dispensing 150 nL of compound per well. Assays were conducted in a total volume of 15 μL for 30 min at room temperature before being quenched with the addition of 85 μL 1% formic acid containing 0.5 μg/mL n-Propionyl coenzyme A (Sigma P5397) as an internal standard. Reaction products were detected using a RapidFire 365 system (Agilent, Santa Clara, CA) coupled with a triple quadrupole mass spectrometer 6740 (Agilent).
The sipper was washed to minimize carryover with 0.1% TFA in deionized water followed by 0.1% TFA in acetonitrile/deionized water (95%/5%, v/v). The sipper was washed to minimize carryover with deionized water followed by acetonitrile. Aspiration time, load/wash time, elution time, and re-equilibration time were set to 600, 3000, 5000, and 500 ms, respectively, with a cycle time of approximately 10 s. The triple-quadrupole mass spectrometer with electrospray ion source was operated in positive multiple reaction monitoring (MRM) mode. The detailed setting for the mass spectrometer parameters was as follows: capillary voltage, 3000 V; gas temperature, 350°C; gas flow, 7 L/min; nebulizer, 40 psi; sheath gas temperature, 300°C′ sheath gas flow, 11 L/min; and nozzle voltage, 1500 V. The MRM transitions for acetyl-CoA as a reaction product were set as 810.1/303.1 & 810.1/428.1 (quantifier & qualifier with dwell time of 50 ms, 100V fragmentor, and collision energies of 30 & 28 eV respectively) and for n-propionyl-CoA as an internal standard as 824.2/317.2 & 824.2/428.0 (quantifier & qualifier with dwell time of 50 ms, 100V fragmentor, and collision energies of 32 & 26 eV respectively). The mass resolution window for both parental and daughter ions was set at as a unit (0.7 Da). Peak areas were integrated, and area ratios of acetyl-CoA to the internal standard (n-propionyl CoA) were used for quantitation. Data were converted to % inhibition relative to the uninhibited enzyme control and fitted to Equation 3.

Row | SMILES | EC50 (P. falciparum 3D7-A10) [nM] | EC50 [1] [nM] | EC50 (P. falciparum Dd2-B2) [nM] | EC50 [2] [nM] | Km (PfAcAS A597V) [µM] | Vmax (s-1), PfAcAS A597V (PfAcAS A597V) [s⁻¹] | Km (PfAcAS WT) [µM] | Km (PfAcAS T648M) [µM] | Km (HsAcAS WT) [µM]
1 | C[C@H]1[C@@H](O)O[C@@H]2O[C@@]3(C)CC[C@H]4[C@H](C)CC[C@@H]1[C@@]24OO3 [Dihydroartemisinin] | 2.6 ± 1.6 | 3.7 ± 3 | 4.6 ± 3 | 5.6 ± 3.5 | – | – | – | – | –
2 | CC(=O)O [acetate] | – | – | – | – | 400 ± 12 | 0.54 ± 0.05 | 72 | 190 ± 8 | 61 ± 4

Reference: article PMC8878317, “Chemogenomics identifies acetyl-coenzyme A synthetase as a target for malaria treatment and prevention” (Cell Chemical Biology, 2022)
